Test results taken from patent publication US20260217701A1, “SELECTIVE BET INHIBITORS AND USES THEREOF” (Tay Therapeutics Limited, priority 2022, published 2026).

Columns and labels:
[1] = Dog PK study #4 (Compound A PO daily 14 days, 1/3/10 mg/kg; toxicokinetics, platelet counts); assay type: in vivo, beagle dogs; settings: for Mean Platelet Count: Day 15 following 14 days of administration; for concentration at 0.5 h / concentration at 1 h / concentration at 2 h / concentration at 4 h / concentration at 8 h / concentration at 24 h: beagle, dog, plasma, oral, after daily administration for 14 days
Protocol: The different doses of compound A were orally administered to animals (n=2/group, one male and one female animal) daily for 14 days.
Blood samples were collected at 0.5, 1, 2, 4, 8, and 24 hours after administration of Compound A on Day 14, and EDTA-K2 was used as an anticoagulant. Within 30 minutes of collection, the samples were centrifuged at approximately 2000×g for 10 minutes at 4° C. to obtain blood plasma. The samples were immediately divided into aliquots, transferred to cryogenic vials, and stored in a freezer at −75+15° C. prior to analysis.
The concentration of Compound A in the blood plasma was determined through liquid chromatography-mass spectrometry (LC-MS). The experiments were conducted on a Shimadzu UPLC and AB API 6500+LC/MS/MS with a Water […] UPLC HSS T3 1.8 μm (50×2.1 mm) column. A gradient of 0.1% formic acid in water/0.1% formic acid in acetonitrile was used as the mobile phase. The sample injection volume was 1 μL. The flow rate was 0.6 mL/min.
The desired serial concentrations of working solutions were achieved by diluting 30 μL of sample (control standard, QC standard, test samples) with 30 μL of a 50% acetonitrile in water solution (for double blanks) or 30 μL of the IS mixture (Compound B 80 ng/ml in 50% acetonitrile). 240 μL of 100% acetonitrile was then added and samples were vortexed for 5 min and centrifuged at 3200×g at 4° C. for 10 min. 100 μL of the supernatant was transferred and then diluted with 50% acetonitrile. Samples were then vortexed for about 5 min before injection into the LC/MS/MS system for quantitative analysis.

anti-dsDNA antibodies = experiment: SLE (lupus) model: anti-dsDNA antibodies in serum by ELISA; assay type: in vivo, MRL/MpJ-Faslpr mice
Protocol: Female MRL/MpJ-Faslpr mice (The Jackson Laboratory) were used to assess the efficacy of Compound A in treating lupus. Starting when animals were 10 weeks of age, protein concentration in urine was measured using urine dipsticks.
At the start of the study, each group in the study had two animals that were 9 weeks old, and all others were 10 weeks old. Dosing of all animals with the test compounds began when the older animals were 11 weeks old. […] […] Dosing was at a consistent time each dosing day throughout the study.
Compound A may be formulated as illustrated in Experimental Method A (see Table 2E.). […] A stock solution of Compound A in DMSO (stock solution concentration of Compound A of 40 mg/mL) was prepared and aliquots for weekly preparations were frozen at −20° C. On each preparation day, a stock solution aliquot was thawed and diluted with other vehicle components to the desired concentration. Formulated Compound A and vehicle were at room temperature for dosing.
The study began when the older animals were 11 weeks old, and concluded when the older animals were 19 weeks old. Body weight was recorded once a week, with the exception of two weight measurements taken the first week of the study (when the older animals were 11 weeks old). Proteinuria was measured in the urine of animals with urine dipsticks once a week, starting when the older animals were 10 weeks old. […] Blood samples were taken retro-orbitally at the start of the study to establish a baseline (15 animals, 3 per group), and when the older animals were 16 weeks (all animals) and when animals were 19 weeks (all animals) at the conclusion of the study. Blood urea nitrogen (BUN) was measured in all animals at study termination in blood samples. After blood collection, animals were euthanized, perfused with PBS, and the left kidneys were collected and weighed and fixed in 10% buffered formalin. Left kidneys were then processed to a formalin-fixed, paraffin-embedded (FFPE) block, and histology was analyzed in Periodic Acid-Schiff-stained sections (1 section per slide), using the criteria described in Alperovich et al., Lupus, 16:18-24 (2007). Right kidneys were weighed and snap-frozen at −80° C. Spleens were also collected and weighed. SLE in animals treated with a BET inhibitor and vehicle.
Anti-dsDNA antibody test measures the amount of antibody to double-stranded deoxyribonucleic acid (anti-dsDNA) that may be present in the blood. Anti-dsDNA antibodies are highly specific markers of SLE as these antibodies are not thought to be present in other kinds of autoimmune disorder.

[2] = both sexes, 1 mg/kg, Pooled Mean
[3] = both sexes, 3 mg/kg, Pooled Mean
[4] = both sexes, 10 mg/kg, Pooled Mean

For `Cn1cc(-c2ccccc2)c(-c2cn(C)c(=O)c3[nH]c(-c4cnn(C(F)(F)F)c4)cc23)cc1=O` [Compound A, 6-methyl-4-(1-methyl-2-oxo-5-phenyl-1,2-dihydropyridin-4-yl)-2-(1-(trifluoromethyl)-1H-pyrazol-4-yl)-1,6-dihydro-7H-pyrrolo[2,3-c]pyridin-7-one], the “exposure difference between male and female animals” value ([1]; Day 14) was “no exposure differences”, the “plasma concentration relative to BD2 BRD4 and BD1 BRD4 free EC50” value ([1]; Day 14, 1, 3 and 10 mg/kg, all time points over 24 hours) was “remained well above the BD2 BRD4 EC50” and the “time of peak (or plateau) plasma concentration” value ([1]; Day 14, all animals) was “approximately 2 hours”. For the same compound, the “platelet counts relative to vehicle” value ([1]; Day 15, after 14 days of 1, 3 or 10 mg/kg) was “no appreciable difference in platelet counts”, the “Mean Platelet Count” value ([1]; 1 mg/kg) was 260750 µL⁻¹ and the “Mean Platelet Count” value ([1]; 3 mg/kg) was 241000 µL⁻¹. The “Mean Platelet Count” value ([1]; 10 mg/kg) was 293000 µL⁻¹, the concentration at 0.5 h ([1]; 1 mg/kg, Female) was 27.8 ng/mL and the concentration at 1 h ([1]; 1 mg/kg, Female) was 57.9 ng/mL. The concentration at 2 h ([1]; 1 mg/kg, Female) was 70.1 ng/mL, the concentration at 4 h ([1]; 1 mg/kg, Female) was 55.9 ng/mL and the concentration at 8 h ([1]; 1 mg/kg, Female) was 25.7 ng/mL. It also gave a concentration at 24 h ([1]; 1 mg/kg, Female) of 10.3 ng/mL, a concentration at 0.5 h ([1]; 1 mg/kg, Male) of 31.6 ng/mL and a concentration at 1 h ([1]; 1 mg/kg, Male) of 56.7 ng/mL. The concentration at 2 h ([1]; 1 mg/kg, Male) was 60.8 ng/mL, the concentration at 4 h ([1]; 1 mg/kg, Male) was 44.8 ng/mL and the concentration at 8 h ([1]; 1 mg/kg, Male) was 24.5 ng/mL. For the same compound, the concentration at 24 h ([1]; 1 mg/kg, Male) was 25.1 ng/mL, the concentration at 0.5 h ([1]; 3 mg/kg, Female) was 152 ng/mL and the concentration at 1 h ([1]; 3 mg/kg, Female) was 324 ng/mL. It also gave a concentration at 2 h ([1]; 3 mg/kg, Female) of 320 ng/mL, a concentration at 4 h ([1]; 3 mg/kg, Female) of 230 ng/mL and a concentration at 8 h ([1]; 3 mg/kg, Female) of 87.5 ng/mL. For the same compound, the concentration at 24 h ([1]; 3 mg/kg, Female) was 14.2 ng/mL, the concentration at 0.5 h ([1]; 3 mg/kg, Male) was 98.3 ng/mL and the concentration at 1 h ([1]; 3 mg/kg, Male) was 201 ng/mL. For the same compound, the concentration at 2 h ([1]; 3 mg/kg, Male) was 265 ng/mL, the concentration at 4 h ([1]; 3 mg/kg, Male) was 245 ng/mL and the concentration at 8 h ([1]; 3 mg/kg, Male) was 165 ng/mL. For the same compound, the concentration at 24 h ([1]; 3 mg/kg, Male) was 33 ng/mL, the concentration at 0.5 h ([1]; 10 mg/kg, Female) was 1130 ng/mL and the concentration at 1 h ([1]; 10 mg/kg, Female) was 1630 ng/mL. The concentration at 2 h ([1]; 10 mg/kg, Female) was 1680 ng/mL, the concentration at 4 h ([1]; 10 mg/kg, Female) was 1070 ng/mL and the concentration at 8 h ([1]; 10 mg/kg, Female) was 342 ng/mL. The concentration at 24 h ([1]; 10 mg/kg, Female) was 61.6 ng/mL, the concentration at 0.5 h ([1]; 10 mg/kg, Male) was 1010 ng/mL and the concentration at 1 h ([1]; 10 mg/kg, Male) was 1450 ng/mL. The concentration at 2 h ([1]; 10 mg/kg, Male) was 1490 ng/mL, the concentration at 4 h ([1]; 10 mg/kg, Male) was 1350 ng/mL and the concentration at 8 h ([1]; 10 mg/kg, Male) was 646 ng/mL. It also gave a concentration at 24 h ([1]; 10 mg/kg, Male) of 145 ng/mL, a concentration at 0.5 h [1, 2] of 29.7 ng/mL and a concentration at 1 h [1, 2] of 57.3 ng/mL. It also gave a concentration at 2 h [1, 2] of 65.5 ng/mL, a concentration at 4 h [1, 2] of 50.4 ng/mL and a concentration at 8 h [1, 2] of 25.1 ng/mL. It also gave a concentration at 24 h [1, 2] of 17.7 ng/mL, a concentration at 0.5 h [1, 3] of 125 ng/mL and a concentration at 1 h [1, 3] of 262 ng/mL. For the same compound, the concentration at 2 h [1, 3] was 292 ng/mL, the concentration at 4 h [1, 3] was 238 ng/mL and the concentration at 8 h [1, 3] was 126 ng/mL. The concentration at 24 h [1, 3] was 23.6 ng/mL, the concentration at 0.5 h [1, 4] was 1070 ng/mL and the concentration at 1 h [1, 4] was 1540 ng/mL. It also gave a concentration at 2 h [1, 4] of 1580 ng/mL, a concentration at 4 h [1, 4] of 1210 ng/mL and a concentration at 8 h [1, 4] of 494 ng/mL. For the same compound, the concentration at 24 h [1, 4] was 103 ng/mL, the “Anti-dsDNA Antibodies in serum, mean” value (anti-dsDNA antibodies; Compound A 1 mg/kg PO QD, Week 16) was 240 units/mL and the “Anti-dsDNA Antibodies in serum, mean” value (anti-dsDNA antibodies; Compound A 1 mg/kg PO QD, Week 19) was 149 units/mL. The “Anti-dsDNA Antibodies in serum, mean” value (anti-dsDNA antibodies; Compound A 3 mg/kg PO QD, Week 16) was 112 units/mL, the “Anti-dsDNA Antibodies in serum, mean” value (anti-dsDNA antibodies; Compound A 3 mg/kg PO QD, Week 19) was 94 units/mL and the “Anti-dsDNA Antibodies in serum, mean” value (anti-dsDNA antibodies; Compound A 10 mg/kg PO QD, Week 16) was 47 units/mL. For the same compound, the “Anti-dsDNA Antibodies in serum, mean” value (anti-dsDNA antibodies; Compound A 10 mg/kg PO QD, Week 19) was 57 units/mL, the “Anti-dsDNA antibodies in serum” value (anti-dsDNA antibodies; Week 16, 1 mg/mL) was “did not appear to be effective” and the “Anti-dsDNA antibodies in serum” value (anti-dsDNA antibodies; Week 16 and Week 19, 3 mg/mL) was “positive effect in reducing levels”. The “Anti-dsDNA antibodies in serum versus Vehicle group” value (anti-dsDNA antibodies; Week 16 and Week 19, Compound A (10 mg/mL) and Cyclophosphamide) was “effective in reducing levels to well below that seen with the Vehicle administered group” and the “Anti-dsDNA antibodies in serum” value (anti-dsDNA antibodies; Week 19, 1 mg/mL) was “effective in reducing the levels”.
